Laboratory results reported in patent publication US20260098008A1, “COVALENT, CHEMOGENETIC ACTIVATORS FOR K2P POTASSIUM CHANNELS AND USES THEREOF” (THE REGENTS OF THE UNIVERSITY OF CALIFORNIA, priority 2022, published 2026).
Residue numbers refer to the chain shown, from its start.

Legend:
[1] = target: T1, K2P2.1 (TREK-1) (Mus musculus, UniProt P97438); assay: Two-electrode voltage clamp (TEVC) in Xenopus oocytes; assay type: cell-based; details: for TREK-1 fold-activation: 20 uM, oocytes expressing TREK1; for TREK-1 activity class: Fold-activation at 20 uM in oocytes
T1 construct: expressed in transfected cells; host or cells: Xenopus laevis oocytes injected with mRNA (pGEMHE/pMO vector)
T1 sequence (P97438 1-411 isoform P97438-2): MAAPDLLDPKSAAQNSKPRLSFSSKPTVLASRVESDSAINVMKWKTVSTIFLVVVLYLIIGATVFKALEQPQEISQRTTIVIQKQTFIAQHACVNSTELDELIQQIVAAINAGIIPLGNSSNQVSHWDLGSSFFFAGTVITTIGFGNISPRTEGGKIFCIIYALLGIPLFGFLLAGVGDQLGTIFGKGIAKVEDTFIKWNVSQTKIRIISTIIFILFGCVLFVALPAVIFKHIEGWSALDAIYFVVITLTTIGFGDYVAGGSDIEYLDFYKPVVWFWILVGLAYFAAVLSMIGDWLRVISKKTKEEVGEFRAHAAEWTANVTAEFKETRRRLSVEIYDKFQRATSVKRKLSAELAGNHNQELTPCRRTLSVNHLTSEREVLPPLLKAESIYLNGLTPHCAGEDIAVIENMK
Text: (§1) Mouse K2P2.1 (TREK-1) (Genbank accession number: NP_034737.2), mouse K2P10.1 (TREK-2) (NM_001316665.1), mouse K2P4.1 (TRAAK) (NM_008431.3), human K2P4.1 (TRAAK) (NM_033310.2) and mouse K2P18.1(TRESK) (NM_207261.3) were used for this study. Point mutations were introduced by site-directed mutagenesis using custom primers and confirmed by sequencing before use. For studies using Xenopus oocytes, K2P channels were subcloned into a previously reported pGEMHE/pMO vector (46). For expression in HEK293 cells, mouse K2P2.1 (TREK-1) and mutants were expressed from a previously described pIRES2-EGFP vector in HEK293 cells (46,47). K2P2.1 (TREK-1) tandems were constructed by connecting the open reading frames for the individual subunits with a linker encoding the […] (SEQ ID NO: 19) sequence. Tandems used for HEK293 cells included an N-terminal HA tag ([…] (SEQ ID NO: 20)) on the first subunit.
(§2) Xenopus laevis oocytes were harvested according to UCSF IACUC Protocol AN129690 and digested using collagenase (Worthington Biochemical Corporation, #LS004183, 0.8-1.0 mg/mL) in Ca^21-free ND96 (96 mM NaCl, 2 mM KCl, 3.8 mM MgCl2, 5 mM HEPES pH 7.4) immediately post-harvest, as previously reported (31,33). Oocytes were maintained at 18° C. in ND96 (96 mM NaCl, 2 mM KCl, 1.8 mM CaCl2, 2 mM MgCl2, 5 mM HEPES pH 7.4) supplemented with antibiotics (100 units mL^−1 penicillin, 100 μg mL^−1 streptomycin, 50 μg mL^−1 gentimycin) and used for experiments within one week of harvest.
(§3) Defolliculated stage V-VI oocytes were microinjected with 0.5-36 ng mRNA and currents were recorded within 16-48 h hours of injection.
(§4) For recordings, oocytes were impaled with borosilicate recording microelectrodes (0.4-2.0 MΩ resistance) backfilled with 3 M KCl and were subjected to constant perfusion of ND96 at a rate of 3 ml min^−1. Recording solutions containing K2P activators were prepared immediately prior to use from DMSO stocks (20-100 mM), with final DMSO concentrations of 0.1%. Currents were evoked from a −80 mV holding potential followed by a 300 ms ramp from −150 mV to +50 mV. Data were recorded using a GeneClamp 500B amplifier (MDS Analytical Technologies) controlled by pCLAMP8 software (Molecular Devices), and digitized at 1 kHz using Digidata 1332 Å digitizer (MDS Analytical Technologies). For each recording, control solution (ND96) was perfused over a single oocyte until current was stable before switching to solutions containing the test compounds at various concentrations. Representative traces and dose response plots were generated in GraphPad Prism 9.

[2] = target: T2, TREK-1^CG* (K2P2.1 (TREK-1) S131C) (Mus musculus, UniProt P97438, S146C); assay: TEVC in Xenopus oocytes; assay type: cell-based; details: for TREK-1 GC activity class: Fold-activation at 20 uM in oocytes; for Fold-activation (I activator/I control) / Reversibility of activation on washout: 20 μM, Xenopus oocytes; for Fold-activation (I activator/I control): 0 mV
T2 construct: expressed in transfected cells; host or cells: Xenopus laevis oocytes injected with mRNA
T2 sequence (P97438 1-411 isoform P97438-2 S131C): T1 sequence (P97438 1-411 isoform P97438-2) with S131C
Text: as §1, §2, §3, §4

Structure (SMILES)	TREK-1 fold-activation [1] [fold]	TREK-1 activity class [1]	other results
CC(NC(=O)c1ccc(NC(N)=O)cc1)c1ccc(Cl)cc1Cl (stereo not shown) [Entry 31]	1.3		
CS(=O)(=O)Nc1ccc(C(=O)NCc2ccc(Br)cc2Cl)cc1 [Entry 41]	3.3	++ (2.5-5 fold)	
O=C(NCc1ccc(Cl)cc1Cl)c1cccc(B(O)O)c1 [Entry 24]	1.3	+ (1.5-2.5 fold)	
Cc1cc(Cl)cc(Cl)c1CNC(=O)c1ccc(NS(C)(=O)=O)cc1 [Entry 40]	1.1		
CNS(=O)(=O)c1ccc(C(=O)NCc2ccc(Cl)c(Cl)c2)cc1 [Entry 37]	1.5	+ (1.5-2.5 fold)	
O=C(/C=C/C(F)(F)F)Nc1ccc(C(=O)NCc2ccc(Cl)cc2Cl)cc1 [Entry 7]	1.0		
CC(NC(=O)c1ccc(NC(=O)NC(=O)C(Cl)(Cl)Cl)cc1)c1ccc(Cl)cc1Cl (stereo not shown) [Entry 34]	1.2		
CS(=O)(=O)Nc1ccc(C(=O)NCc2ccc(Cl)c(F)c2)cc1 [Entry 39]	1.5	+ (1.5-2.5 fold)	
CS(=O)(=O)Nc1ccc(C(=O)NCc2ccc(Cl)c(Cl)c2)cc1 [Entry 38]	4.8	+++ (>5 fold)	
O=C(NCc1ccc(Cl)cc1Cl)c1ccc(C(=O)N2CCS2(=O)=O)cc1 [Entry 48]		+ (1.5-2.5 fold)	TREK-1 GC activity class [2]: + (1.5-2.5 fold)
CS(=O)(=O)Nc1ncc(C(=O)NCc2ccc(Cl)cc2Cl)cn1 [Entry 42]	1.4	+ (1.5-2.5 fold)	
CS(=O)(=O)Nc1ccc2c(c1)OCCN(Cc1ccc(Cl)cc1Cl)C2=O [Entry 43]	1.6	+ (1.5-2.5 fold)	
O=C(NCc1ccc(Cl)cc1Cl)c1ccc(N2C(=O)CCC2=O)cc1 [CAT335c]			Fold-activation (I activator/I control) ([1]; 20 μM, currents at 0 mV, Xenopus oocytes): 2.09 ± 0.14 fold; Fold-activation (I activator/I control) [2]: 5.0 ± 0.4 fold; Reversibility of activation on washout [2]: reversible
CCOC(=O)CCCC1=CC(=O)N(c2ccc(C(=O)NCc3ccc(Cl)cc3Cl)cc2)C1=O [Entry 19]			TREK-1 GC activity class [2]: ++ (2.5-5 fold)
CC1(C)OB(Cc2ccc(C(=O)NCc3ccc(Cl)cc3Cl)cc2)OC1(C)C [Entry 26]	1.6	+ (1.5-2.5 fold)	
O=C(NCc1ccc(Cl)cc1Cl)c1ccc(CB(O)O)cc1 [Entry 25]	1.5	+ (1.5-2.5 fold)	
C=C(CC(=O)O)C(=O)Nc1ccc(C(=O)NCc2ccc(Cl)cc2Cl)cc1 [Entry 6]	1.7 to 2.5	+ (1.5-2.5 fold)	

Structure (SMILES)	TREK-1 fold-activation [1] [fold]	TREK-1 activity class [1]	other results
O=C(COCCOCCNC(=S)Nc1ccc2c(c1)C(=O)OC21c2ccc(O)cc2Oc2cc(O)ccc21)Nc1ccc(C(=O)NCc2ccc(Cl)cc2Cl)cc1 [Entry 46]	4	+++ (>5 fold)	
C=C(CCC(=O)O)C(=O)Nc1ccc(C(=O)NCc2ccc(Cl)cc2Cl)cc1 [Entry 3]		++ (2.5-5 fold)	TREK-1 GC activity class [2]: ++ (2.5-5 fold)
O=C(NCc1ccc(Cl)cc1Cl)c1ccc(N2CCS2(=O)=O)cc1 [Entry 47]			TREK-1 GC activity class [2]: + (1.5-2.5 fold)
CC1=CC(=O)N(c2ccc(C(=O)NCc3ccc(Cl)cc3Cl)cc2)C1=O [CAT335a]			Fold-activation (I activator/I control) [2]: 7.4±0.7 fold; Reversibility of activation on washout [2]: irreversibly activate
CN(Cc1ccc(Cl)cc1Cl)C(=O)c1ccc(NS(C)(=O)=O)cc1 [Entry 30]	1.0		
C#CCNC(=O)CCCC1=CC(=O)N(c2ccc(C(=O)NCc3ccc(Cl)cc3Cl)cc2)C1=O [Entry 18]			TREK-1 GC activity class [2]: ++ (2.5-5 fold)
O=C(NCc1ccc(Cl)cc1Cl)c1ccc(NC(=O)C(F)(F)F)cc1 [Entry 28]	3.3	++ (2.5-5 fold)	
O=C(NCc1ccc(Cl)cc1Cl)c1ccc(NCC2CO2)cc1 (stereo not shown) [Entry 27]	2.5	++ (2.5-5 fold)	
CS(=O)(=O)Nc1cccc(C(=O)NCc2ccc(Cl)cc2Cl)c1 [Entry 33]	2.2	++ (2.5-5 fold)	
CS(=O)(=O)Nc1ccc2c(c1)CCCN(Cc1ccc(Cl)cc1Cl)C2=O [Entry 44]	1.0		
CC1=C(C)C(=O)N(c2ccc(C(=O)NCc3ccc(Cl)cc3Cl)cc2)C1=O [CAT335b]			Fold-activation (I activator/I control) [2]: 4.9±0.6 fold; Reversibility of activation on washout [2]: partially reversible with washout; Reversibility of activation after extended incubation ([2]; 1 hour incubation, washout with buffer): remained reversible
CS(=O)(=O)Nc1ccc2c(c1)CCN(Cc1ccc(Cl)cc1Cl)C2=O [Entry 45]	1.1		
CC(NC(=O)c1ccc(NS(C)(=O)=O)cc1)c1ccc(Cl)cc1Cl (stereo not shown) [Entry 32]	1.2		
C=CC(=O)Nc1cccc(C(=O)NCc2ccc(Cl)cc2Cl)c1 [Entry 10]	1.2		
O=C(NCc1ccc(Cl)cc1Cl)c1cccc(CB(O)O)c1 [Entry 23]	1.0		
C=CS(=O)(=O)Nc1ccc(C(=O)NCc2ccc(Cl)cc2Cl)cc1 [Entry 11]	1.3		

Now from value to compound, other results behind:

TREK-1 fold-activation [1] [fold]	TREK-1 activity class [1]	Structure (SMILES)	other results
	+ (1.5-2.5 fold)	C=C1CC(=O)N(c2ccc(C(=O)NCc3ccc(Cl)cc3Cl)cc2)C1=O [Entry 17]	TREK-1 GC activity class [2]: ++ (2.5-5 fold)
	+++ (>5 fold)	C=CC(=O)Nc1ccc(C(=O)NCc2ccc(Cl)cc2Cl)cc1 [Entry 1]	TREK-1 GC activity class [2]: +++ (>5 fold)
	+++ (>5 fold)	C#CCNC(=O)CCC(=C)C(=O)Nc1ccc(C(=O)NCc2ccc(Cl)cc2Cl)cc1 [Entry 2]	TREK-1 GC activity class [2]: +++ (>5 fold)
7.0	+++ (>5 fold)	C#CCNC(=O)CC(=C)C(=O)Nc1ccc(C(=O)NCc2ccc(Cl)cc2Cl)cc1 [Entry 5]	
3	++ (2.5-5 fold)	CNS(=O)(=O)c1ccc(C(=O)NCc2ccc(Cl)cc2Cl)cc1 [Entry 36]	
1.0		C#CCN(C(=O)C=C)c1ccc(C(=O)NCc2ccc(Cl)cc2Cl)cc1 [Entry 9]	
3.6	++ (2.5-5 fold)	N#CCC(=O)Nc1ccc(C(=O)NCc2ccc(Cl)cc2Cl)cc1 [Entry 8]	
6.4	+++ (>5 fold)	NC(=O)Nc1ccc(C(=O)NCc2ccc(Cl)cc2Cl)cc1 [Entry 35]	
1.2		C/C=C/C(=O)Nc1ccc(C(=O)NCc2ccc(Cl)cc2Cl)cc1 [Entry 4]	
